Experimental data taken from PubChem BioAssay AID328 (DTP/NCI, 2004).
Where “and” joins values, the source holds several entries; their conditions need not be identical. Equal entries are not always repeated. Toxic doses and inconclusive results are not listed. The calls were made as follows: active = survival T/C of 150% or more; inactive = T/C below 125% in these data.

System: BDF1 mice, P388 leukemia ip, median survival T/C
Test: NCI In Vivo Anticancer Drug Screen. Data for tumor model P388 Leukemia (intraperitoneal) in B6D2F1 (BDF1) mice
Details: endpoint: median survival time, higher = longer survival
Method in brief: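 In tumour-bearing mice, survival after compound treatment is set against the vehicle group and given as a quotient.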

[1] = dose: 12.5 mg/kg/injection, schedule: Q01DX009 (ip), vehicle: Klucel (hydroxypropylcellulose) (HPC)
[2] = dose: 12.5 mg/kg/injection, schedule: Q04DX003 (ip), vehicle: Klucel (hydroxypropylcellulose) (HPC)
[3] = dose: 25.0 mg/kg/injection, schedule: Q01DX009 (ip), vehicle: Klucel (hydroxypropylcellulose) (HPC)
[4] = dose: 25.0 mg/kg/injection, schedule: Q04DX003 (ip), vehicle: Klucel (hydroxypropylcellulose) (HPC)
[5] = dose: 50.0 mg/kg/injection, schedule: Q01DX009 (ip), vehicle: Klucel (hydroxypropylcellulose) (HPC)
[6] = dose: 50.0 mg/kg/injection, schedule: Q04DX003 (ip), vehicle: Klucel (hydroxypropylcellulose) (HPC)
[7] = dose: 50.0 mg/kg/injection, schedule: Q01DX009 (ip), vehicle: saline with Tween-80
[8] = dose: 100.0 mg/kg/injection, schedule: Q01DX009 (ip), vehicle: saline with Tween-80
[9] = dose: 200.0 mg/kg/injection, schedule: Q01DX009 (ip), vehicle: saline with Tween-80
[10] = dose: 100.0 mg/kg/injection, schedule: Q01DX009 (ip), vehicle: Klucel (hydroxypropylcellulose) (HPC)
[11] = dose: 200.0 mg/kg/injection, schedule: Q01DX009 (ip), vehicle: Klucel (hydroxypropylcellulose) (HPC)
[12] = dose: 100.0 mg/kg/injection, schedule: Q04DX003 (ip), vehicle: saline with Tween-80
[13] = dose: 200.0 mg/kg/injection, schedule: Q04DX003 (ip), vehicle: saline with Tween-80
[14] = dose: 400.0 mg/kg/injection, schedule: Q04DX003 (ip), vehicle: saline with Tween-80

Measured: T/C

C[N+](C)(C)c1ccc(/C=N\NC(=O)c2ccccc2)cc1
inactive: [1] 105 % of control | [2] 100 % of control | [3] 105 % of control | [4] 100 % of control | [5] 105 % of control | [6] 95 % of control

CCCOC(=O)C(F)C(Br)C(=O)OCCC (stereo not given)
inactive: [7] 89 % of control | [8] 99 % of control | [9] 118 % of control

C[C@]12CCC(=O)C=C1CC[C@@H]1[C@@H]2C(=O)C[C@]2(C)C3=CC(=O)O[C@H]3C[C@@H]12
inactive: [1] 109 % of control and 110 % of control | [2] 109 % of control | [3] 118 % of control and 120 % of control | [4] 113 % of control | [5] 86 % of control and 115 % of control | [6] 122 % of control | [10] 90 % of control

O=[N+]([O-])c1cc([N+](=O)[O-])c(Nc2cccc3ccccc23)c([N+](=O)[O-])c1
inactive: [5] 100 % of control | [10] 100 % of control | [11] 103 % of control

CCOC(=O)CSc1c([N+](=O)[O-])c(C)nn1C
inactive: dose: 3.12 mg/kg/injection, schedule: Q04DX003 (ip), vehicle: water 110 % of control | dose: 6.25 mg/kg/injection, schedule: Q04DX003 (ip), vehicle: water 100 % of control and 106 % of control | dose: 12.5 mg/kg/injection, schedule: Q04DX003 (ip), vehicle: water 92 % of control and 104 % of control | dose: 25.0 mg/kg/injection, schedule: Q01DX009 (ip), vehicle: water 93 % of control | dose: 25.0 mg/kg/injection, schedule: Q04DX003 (ip), vehicle: water 88 % of control and 100 % of control | dose: 50.0 mg/kg/injection, schedule: Q01DX009 (ip), vehicle: water 90 % of control | dose: 50.0 mg/kg/injection, schedule: Q04DX003 (ip), vehicle: water 97 % of control and 100 % of control and 113 % of control | dose: 100.0 mg/kg/injection, schedule: Q01DX009 (ip), vehicle: water 93 % of control | dose: 100.0 mg/kg/injection, schedule: Q04DX003 (ip), vehicle: water 101 % of control and 104 % of control | dose: 200.0 mg/kg/injection, schedule: Q01DX009 (ip), vehicle: water 101 % of control | dose: 200.0 mg/kg/injection, schedule: Q04DX003 (ip), vehicle: water 109 % of control | dose: 400.0 mg/kg/injection, schedule: Q01DX009 (ip), vehicle: water 101 % of control | dose: 400.0 mg/kg/injection, schedule: Q04DX003 (ip), vehicle: water 103 % of control

CC(C)C(OCc1ccccc1)C(=O)O (stereo not given)
inactive: dose: 50.0 mg/kg/injection, schedule: Q04DX003 (ip), vehicle: saline with Tween-80 100 % of control | [12] 108 % of control | [13] 108 % of control | [14] 108 % of control

CCOC(=O)/C(=C\c1ccccc1)O/C(=C/c1ccccc1)C(=O)OCC
inactive: dose: 100.0 mg/kg/injection, schedule: Q04DX002 (ip), vehicle: saline with Tween-80 89 % of control | dose: 400.0 mg/kg/injection, schedule: Q04DX002 (ip), vehicle: saline with Tween-80 93 % of control

O=C1SC(c2ccccc2)=S=C1c1ccccc1
inactive: [7] 108 % of control | [8] 123 % of control | [9] 123 % of control | dose: 400.0 mg/kg/injection, schedule: Q01DX009 (ip), vehicle: saline with Tween-80 117 % of control

Cc1ccc(NO)c(C)c1
inactive: dose: 50.0 mg/kg/injection, schedule: Q01DX005 (ip), vehicle: saline with Tween-80 113 % of control | dose: 100.0 mg/kg/injection, schedule: Q01DX005 (ip), vehicle: saline with Tween-80 108 % of control

COC(=O)C(=O)[C@@H](O)[C@H](O)[C@@H](O)CO
inactive: [10] 100 % of control | [11] 113 % of control | dose: 400.0 mg/kg/injection, schedule: Q01DX009 (ip), vehicle: Klucel (hydroxypropylcellulose) (HPC) 109 % of control

COC(=O)c1ccccc1NCCCC(=O)O
inactive: [12] 91 % of control | [13] 108 % of control | [14] 100 % of control
